Read-outs that look alike come from different tables or passages of the source.
How the values were obtained:
[1] = tested on: NF54-pfs16-LUC-GFP stage IV gametocytes; assay: Plasmodium falciparum late stage gametocyte (LSG) image-based assay; format: cell-based; conditions: for IC50: Plasmodium falciparum
[2] = tested on: T. cruzi intracellular amastigotes; assay: Intracellular anti-Trypanosoma cruzi image-based assay (amastigotes); format: cell-based
3T3 host cells = assay: T. cruzi assay, activity against 3T3 host cells; format: cell-based; conditions: reference compound set; IA = inactive at 16.4 μM
Experimental: page 4: […] Puromycin, 71 chloroquine, artesunate, DHA, pyronaridine and pyrimethamine were also tested in 72 IC50 format to act as internal reference compounds. 73 74 Intracellular anti-Trypanosoma cruzi Assay Protocol 75 The host cell cytoplasm, in which the parasite resides, is identified by the fluorescent 76 marker, HCS CellMask Green. Parasite and host cell nuclei are detected with the 77 fluorescent DNA intercalator, Hoechst 33342. The Opera® High Content Screening 78 System is used to take images of wells and a spot detection algorithm is used to 79 identify parasites within the cytoplasm. 80 81 Briefly, 1x 10^3 3T3 cells were added to collagen coated 384-well plates and following 82 24 hrs incubation at 37 °C, a multiplicity of infection (MOI) of 5:1 parasite: host cells 83 were added to the plate using a Multidrop liquid handler. Following additional 24 hrs 84 incubation, extracellular parasites were washed from the plates and RPMI with no […] 86 added to all wells. The final volume of media in the primary screening assay, before 87 addition of compound, was modified slightly to 55 µL. One µL of compounds, provided 88 by Compounds Australia, were diluted by the addition of 25 µL of sterile water. This […] 91 donovani). Five microliters of this dilution was added to assay plates. The final […] The final concentrations of compounds in the […] Following 48 hrs incubation in the presence 97 of compounds, wells were fixed, stained and read on the Opera® High Content 98 Screening System to assess compound activity. 99 The Z′-factor, as a measure of assay reproducibility, was determined from a plate […] The positive control used to calculate activity against […] To 103 assess the sensitivity of the T. cruzi assay, activity of the reference compounds 104 benznidazole, NFX, posaconazole and puromycin were determined. […] 108 resazurin as a measure of parasite viability. 109 T. b. brucei trypanosomes were cultured in vitro in HM1-9 medium supplemented with […] Fifty-five µL of logarithmic phase […] 112 incubated for 24 hrs at 37°C /5% CO2. Compounds were subsequently added to the […] Following […] 116 37°C / 5% CO2 followed by 22 hrs at room temperature. […] The percent

[3] = tested on: T. b. brucei 427 bloodstream trypanosomes; assay: T. b. brucei resazurin viability assay; format: cell-based, Trypanosoma brucei brucei; conditions: for IC50: Trypanosoma brucei
[4] = tested on: L. donovani MHOM/IN/80/DD8 intracellular amastigotes; assay: Leishmania donovani intracellular amastigote assay in THP-1 cells; format: cell-based
[5] = tested on: Plasmodium falciparum 3D7 asexual blood stage; assay: microbe, parasite or virus in culture
[6] = HEK293 resazurin cell cytotoxicity assay; conditions: human
[7] = tested on: T. cruzi C4 β-galactosidase reporter parasite in MRC 5SV2 host cells; conditions: ref Pbox supporting information; read-out: T. cruzi Pbox IC50; cited from earlier work
T. brucei brucei = conditions: ref Pbox supporting information; read-out: T.b. brucei Pbox IC50; cited from earlier work
T. brucei rhodesiense = conditions: ref Pbox supporting information; read-out: T .b. rohdensie Pbox IC50; cited from earlier work
barber's pole worm = tested on: barber's pole worm; set-up: method as in PMID 27524698; conditions: cited from earlier work
[8] = tested on: L. infanium (macrophages); set-up: method as in Pbox supporting information; conditions: ref Pbox supporting information; cited from earlier work
[9] = tested on: Plasmodium falciparum 3D7 asexual blood stage
[10] = tested on: L. infanium (macrophages); set-up: method as in Pathogen Box supporting information; conditions: ref Pathogen Box supporting information, read-out: L. infanium (macrophages) Pbox IC50; cited from earlier work
HEK293 cells [11] = assay: HEK293 resazurin cell cytotoxicity assay
P. falciparum ABS = conditions: cited from earlier work; for EC50: ChEMBL Data, TCMDC, read-out: TCMDC (ref 93) EX50; for IC50: Pf 3D7, ref Pathogen Box supporting information, read-out: Pf 3D7 Pbox IC50
Kinase CDPK1 = target: Kinase CDPK1; set-up: method as in earlier work; conditions: ChEMBL Data; read-out: CROWTHER ref 101) Kinase CDPK1 IC50; cited from earlier work
[12] = tested on: P. falciparum stage V gametocytes; conditions: stage V gametocytes; ref Pathogen Box supporting information; read-out: PF stage V GAMS PBox IC50; cited from earlier work
liver stage = conditions: liver stage; ref Pathogen Box supporting information; read-out: LIVER STAGE Pbox IC50; cited from earlier work
HepG2 = conditions: cited from earlier work; for CC50: read-out: HepG2 PBox CC50 µM
HEK293 cells [13] = tested on: HEK293 cells
[14] = tested on: Plasmodium cGMP-dependent protein kinase (PfPKG); set-up: method as in PMID 16325279, PMID 20643897; conditions: cited from earlier work
[15] = tested on: Candida albicans biofilm formation; set-up: method as in PMID 27795383; conditions: cited from earlier work
[16] = Trypanosoma cruzi, intracellular amastigotes, Discovery Biology, read-out: T cruzi Discovery Biology IC50
[17] = Leishmania donovani, THP-1, intracellular amastigotes, Discovery Biology, some values carry an asterisk, read-out: L, donovani Discovery Biology IC50 µM
[18] = NF54, read-out: Pf Stage IV GAMS Discovery Biology IC50 µM, stage IV gametocytes, Discovery Biology
[19] = HepG2 CC50, ref Pathogen Box supporting information
[20] = 3D7, read-out: Pf 3D7 Discovery Biology IC50 µM, P. falciparum 3D7 asexual blood stage, Discovery Biology
[21] = read-out: IC50 T. brucei brucei (Discovery Biology)
[22] = HepG2 cytotoxicity, ref PBox supporting information
[23] = NF54, read-out: Antiplasmodial IC50 (GAM / LSG), PBox compounds, stage IV gametocytes, single determination

CC(C)(C)[C@H]1CC[C@H](CC2=C(O)C(=O)c3ccccc3C2=O)CC1 [Buparvaquone, reference compound]
IC50 ([1]; NF54, read-out: IC50 P. falciparum NF54 LSG, reference compound set, 11-point dose response, IA = inactive at 20 μM): 5.3 µM
IC50 ([2]; Trypanosoma cruzi, reference compound set, IA = inactive at 16.4 μM, read-out: IC50 T. cruzi intracellular amastigotes): 4.92 µM
Emax ([2]; Trypanosoma cruzi, reference compound set, read-out: T. cruzi Emax (maximal % inhibition plateau in dose response curve)): 98.5%
IC50 (3T3 host cells): > 16400 nM
IC50 ([3]; reference compound set, IA = inactive at 20 μM, read-out: IC50 T. brucei brucei trypomastigotes): > 20000 nM
IC50 ([4]; Leishmania donovani, THP-1, read-out: IC50 L. donovani n = 1, reference compound set, first test, IA = inactive at 20 μM): 1.88 µM
inhibition at 20 µM ([4]; Leishmania donovani, THP-1, reference compound set, second test, 20 μM, read-out: percent inhibition at the top screening dose, L. donovani n = 2): 60%
IC50 ([5]; 3D7, read-out: IC50 P. falciparum 3D7 ABS, reference compound set, 11-point dose response, IA = inactive at 20 μM): 0.14 µM
IC50 at 72 h ([6]; HEK293 cells): > 20000 nM

CCc1nn(C)c(C(=O)NCc2ccc(Oc3ccc(C)cc3)cc2)c1Cl [MMV688934, Tolfenpyrad]
IC50 [7]: 5350 nM
IC50 (T. brucei brucei): 33000 nM
IC50 (T. brucei rhodesiense): 20400 nM
activity against the helminth barber's pole worm (barber's pole worm): activity
IC50 [8]: 45600 nM

CC(c1cc(Cl)cc(Cl)c1)N(C)c1ncc2c(N)nc(N)nc2n1 (centres unmarked) [MMV689437]
activity against T. cruzi in the Discovery Biology assay [2]: demonstrated activity
IC50 [2, 16]: 0.19 µM
activity against T. brucei brucei in the Discovery Biology assay [3]: not active
activity against L. donovani in the Discovery Biology assay [4]: demonstrated activity
IC50 [4, 17]: 5.73 µM
activity in the Discovery Biology ABS assay [9]: not active
IC50 [10]: 540 nM
activity in the HEK293 cytotoxicity assay (HEK293 cells [11]): no activity

Nc1ncc(-c2cn[nH]c2)cc1-c1nc2cc(Cl)cnc2[nH]1 [MMV023370]
EC50 (P. falciparum ABS): 920 nM
IC50 (P. falciparum ABS): 400 nM
IC50 (Kinase CDPK1): 280 nM

CN(C(=O)c1cc2c(-c3cncnc3)cccc2[nH]1)c1ccccc1 [MMV024443]
IC50 [1, 18]: 2.71 µM
EC50 (P. falciparum ABS): 630 nM
IC50 (P. falciparum ABS): 720 nM
IC50 [12]: 570 nM
IC50 (liver stage): 1020 nM
IC50 (Kinase CDPK1): 270 nM
CC50 (HepG2; [19]): > 10 µM
IC50 [5, 20]: 1.69 µM

Cc1cc(C2=NOC(c3cc(Cl)c(F)c(Cl)c3)(C(F)(F)F)C2)ccc1C(=O)NCc1ccc2c(c1)C(C)(C)OB2O (centres unmarked) [MMV687776]
selectivity index (SI) T. cruzi versus HEK293 ([2]; HEK293): > 8
selectivity index (SI) T. cruzi versus HEPG2 ([2]; HEPG2 (PBox data)): 4.3
IC50 ([2]; Trypanosoma cruzi, PBox compounds, intracellular amastigotes, 48 h exposure, read-out: IC50 T. cruzi (Discovery Biology)): 2.39 µM
activity in the HEK293 cytotoxicity assay (HEK293 cells [13]): did not display activity
HepG2 PBox CC20 μMc (HepG2): 10900 nM
IC50 (HepG2): 10900 nM

COc1ccc(Oc2ccc([C@@H](C)N(C)c3ncc4c(N)nc(N)nc4n3)cc2)cc1 [MMV690102]
activity against T. cruzi in the Discovery Biology assay [2]: demonstrated activity
IC50 [2, 16]: 0.09 µM
activity against T. brucei brucei in the Discovery Biology assay [3]: not active
activity against L. donovani in the Discovery Biology assay [4]: demonstrated activity
IC50 [4, 17]: 0.46 µM
activity in the Discovery Biology ABS assay [9]: not active
IC50 [10]: 30 nM
activity in the HEK293 cytotoxicity assay (HEK293 cells [11]): no activity

CC(C)(CN)c1nc(-c2ccc(Cl)c(O)c2)c(-c2ccnc(N)n2)[nH]1 [MMV030734]
EC50 (P. falciparum ABS): 980 nM
IC50 (P. falciparum ABS): 410 nM
IC50 (liver stage): 320 nM
IC50 (Kinase CDPK1): 7 nM
CC50 (HepG2; [19]): > 10 µM

CC(C)=CCC/C(C)=C/CNCCNC1C2CC3CC(C2)CC1C3 (centres unmarked) [MMV687273, SQ-109]
IC50 [1, 18]: 1.89 µM
activity against T. cruzi in the Discovery Biology assay [2]: active
IC50 ([2]; Trypanosoma cruzi, read-out: T cruzi Discovery Biology IC50 µM): 5.39 µM
activity against T. brucei brucei in the Discovery Biology assay [3]: active
IC50 [3, 21]: 2280 nM
activity against L. donovani in the Discovery Biology assay [4]: active
IC50 ([4]; Leishmania donovani, THP-1, read-out: IC50 L. donovani (Discovery Biology), PBox compounds, intracellular amastigotes): 3.47 µM
activity in the Discovery Biology ABS assay [9]: active
CC50 (HepG2; [22]): 7.1 µM
IC50 [5, 20]: 1.43 µM
IC50 ([5]; 3D7, read-out: activity against P. falciparum (novel antiplasmodial actives of the tuberculosis set)): < 2 µM
selectivity ratio at 72 h [6]: > 5

CN1CCC(c2cc(-c3ccncc3)c(-c3ccc(F)cc3)[nH]2)CC1 [MMV688703]
activity in the Discovery Biology stage IV gametocyte (LSG) assay [1]: does not affect
IC50 [14]: 8.5 nM
IC50 ([5]; 3D7, read-out: Antiplasmodial IC50 (ABS), PBox compounds, P. falciparum 3D7): 3.16 µM

CCOC(=O)c1c(NC(=O)c2c(F)c(F)c(F)c(F)c2F)sc(C(N)=O)c1C [MMV153413]
IC50 [1, 23]: 1.06 µM
IC50 [3, 21]: 2990 nM
activity in the Discovery Biology ABS assay [9]: not ABS activity
CC50 (HepG2; [22]): 4.2 µM
selectivity ratio at 72 h [6]: > 5

Cc1[nH]c2ccccc2c1C(c1cccs1)N1CCN(C)CC1 (centres unmarked) [MMV688768]
IC50 [1, 23]: 4.7 µM
selectivity index (SI) T. brucei brucei versus HEK293 ([3]; HEK293): > 13
selectivity index (SI) T. brucei brucei versus HEPG2 ([3]; HEPG2 (PBox data)): > 6
IC50 ([3]; PBox compounds, read-out: IC50 T. brucei brucei (Discovery Biology)): 1500 nM
IC50 ([4]; Leishmania donovani, THP-1, intracellular amastigotes, values marked *, read-out: L, donovani Discovery Biology IC50 µM): 5.4 µM
activity in the Discovery Biology ABS assay [9]: not ABS activity
activity against Candida albicans biofilm formation [15]: inhibitory activity
HepG2 PBox CC20 μMc (HepG2; ref Pbox supporting information): 8500 nM
IC50 (HEK293 cells [11]; Homo sapiens, HEK293, read-out: HEK % Inhibition 20uM/IC50 Discovery Biology (IA)): > 20000 nM

C[C@H](c1ccc2c(c1)CCCC2)N(C)c1ncc2c(N)nc(N)nc2n1 [MMV690103]
activity against T. cruzi in the Discovery Biology assay [2]: demonstrated activity
IC50 [2, 16]: 0.1 µM
activity against T. brucei brucei in the Discovery Biology assay [3]: not active
activity against L. donovani in the Discovery Biology assay [4]: demonstrated activity
IC50 [4, 17]: 5.2 µM
activity in the Discovery Biology ABS assay [9]: not active
IC50 [10]: 470 nM
activity in the HEK293 cytotoxicity assay (HEK293 cells [11]): no activity

Source: publication PMC5571359, “Screening the Medicines for Malaria Venture Pathogen Box across Multiple Pathogens Reclassifies Starting Points for Open-Source Drug Discovery” (Antimicrobial Agents and Chemotherapy, 2017)
